This is an account of results in patent US8552013B2, “Heterocyclic compounds based on N6-substituted adenine, methods of their preparation, their use for preparation of drugs, cosmetic preparations and growth regulators, pharmaceutical preparations, cosmetic preparations and growth regulators containing these compounds” (USTAV Experimentalni Botaniky Akademie Ved Ceske Republiky, priority 2001, dated 2013).

Like-named read-outs stand apart in the source and are kept apart here.

For test [1], the system named is breast carcinoma cell line MCF-7. The experiment in a line: Calcein AM cytotoxicity, MCF7. In kind it is cell-based, human. The note with it: Homo sapiens, read-out: IC 50, MCF7. The source says:
(§1) One of the parameters used, as the basis for cytotoxicity assays, is the metabolic activity of viable cells. For example, a microtiter assay, which uses the Calcein AM, is now widely used to quantitate cell proliferation and cytotoxicity. For instance, this assay is used in drug screening programs and in chemosensitivity testing. Because only metabolically active cells cleave Calcein AM, these assays detect viable cells exclusively. The quantity of reduced Calcein AM corresponds to the number of vital cells in the culture.
(§2) The cells were maintained in Nunc/Corning 80 cm^2 plastic tissue culture flasks and cultured in cell culture medium (DMEM with 5 g/l glucose, 2 mM glutamine, 100 U/ml penicillin, 100 μg/ml streptomycin, 10% fetal calf serum and sodium bicarbonate).
(§3) The cell suspensions that were prepared and diluted according to the particular cell type and the expected target cell density (2.500-30.000 cells per well based on cell growth characteristics) were added by pipette (80 μl) into 96/well microtiter plates. Inoculates were allowed a pre-incubation period of 24 hours at 37° C. and 5% CO2 for stabilisation. Four-fold dilutions of the intended test concentration were added at time zero in 20 μl aliquots to the microtiter plate wells. Usually, test compound was evaluated at six 4-fold dilutions. […] All drug concentrations were examined in duplicates. Incubations of cells with the test compounds lasted for 72 hours at 37° C., in 5% CO2 atmosphere and 100% humidity. At the end of incubation period, the cells were assayed by using the Calcein AM. Ten microliters of the stock solution were pipetted into each well and incubated further for 1 hours. Fluorescence (FD) was measured with the Labsystem FIA Reader Fluoroscan Ascent (UK).

Another test concerns K-562. The experiment in a line: Calcein AM cytotoxicity, K-562. It is filed as cell-based. The note with it: Homo sapiens, K562, 72 h, read-out: IC 50, K-562.
Text: as §1, §2, §3

The subject of test [2] is Amaranthus caudatus cotyledon/hypocotyl explants. The experiment in a line: Amaranthus bioassay, betacyanin content. In kind it is in vivo. The note with it: betacyanin content at the concentration with highest activity. As for the experimental part: Standard Amaranthus bioassay was performed with several modifications. The seeds of Amaranthus caudatus var. atropurpurea were surface-sterilised in 10% N-chlorobenzenesulfonamide (w/v) for 10 min and washed 5 times in deionized water. They were placed in 14 cm Petri dishes containing paper tissues saturated with deionized water. After 72 h of cultivation at 25° C. in darkness, the roots of the seedlings were cut off. The explants, consisting of two cotyledons and hypocotyls, were placed in 5 cm Petri dishes on two layers of filter paper soaked in 1 ml of incubation medium containing 10 μmol NA2HPO4-KH2PO4, pH 6.8, 5 μmol tyrosine and the cytokinin to be tested. There were 20 explants per dish. The procedure was carried out under a green safe light in a darkroom. After a 48 h of incubation at 25° C. in darkness, betacyanin was extracted by freezing the explants in 4 ml […] acetic acid. The concentration of betacyanin was determined by comparing the absorbance at 537 nm and 620 nm as follows: ΔA=[…] nm-A620 nm. From the obtained data, the concentration with highest activity was selected for each compound tested. Relative activity of the compound at this concentration was calculated (Tab. 6). […] The values shown in table 8 are means of five replicates and the entire test was repeated twice. The cytokinins to be tested were dissolved in dimethylsulfoxide (DMSO) and the solution brought up to 10^-3M with distilled water. This stock was further diluted in the respective media used for the biotest to concentrations ranging from 10^-8M to 10^-4M.

In test [3] the test system is Triticum aestivum cv. Hereward leaf tips. The experiment in a line: Retention of chlorophyll in excised wheat leaf tips. The note with it: chlorophyll retention at the concentration with highest activity. In kind it is in vivo. How it is done: Seeds of winter wheat, Triticum aestivum cv. Hereward, were washed under running water for 24 hours and then sown on vermiculite soaked with Knop's solution. They were placed in the grown chamber at 25° C. with a 16/8 h light period at 50 μmol.m^−2.s^−1. After 7 days, the first leaf was fully developed and the second leaf had started to grow. A tip section of the first leaf, approximately 35 mm long, was removed from 5 seedlings and trimmed slightly to a combined weight of 100 mg. The basal ends of the five leaf tips were placed in the wells of a microtiter polystyrene plate containing 150 μl of a cytokinin solution each. The entire plate was inserted into a plastic box lined with paper tissues soaked in distilled water to prevent leaf sections from drying out. After a 96 h incubation in the dark at 25° C., the leaves were removed and chlorophyll extracted by heating at 80° C. for 10 min in 5 ml of 80% ethanol (v/v). The sample volume was then restored to 5 ml by the addition of 80% ethanol (v/v). The absorbency of the extract was recorded at 665 nm. In addition, chlorophyll extracts from fresh leaves and leaf tips incubated in deionised water were measured. From the obtained data, the concentration with highest activity was selected for each compound tested. Relative activity of the compound at this concentration was calculated (Tab. 6). The activity obtained for 10^−4 M 6-benzylaminopurine (BAP) was postulated as 100%. The values shown are means of five replicates and the whole experiment was repeated twice. The cytokinins to be tested were dissolved in dimethylsulfoxide (DMSO) and the solution brought up to 10^−3M with distilled water. This stock was further diluted in distilled water to concentrations ranging from 10^−8M to 10^−4M.

Test [4] has as its system promyelocytic HL-60 leukemia. Put plainly: Calcein AM cytotoxicity, HL60. It is filed as cell-based, human. The note with it: Homo sapiens, read-out: IC 50, HL60.
Text: as §1, §2, §3

The subject of test [5] is tobacco callus Nicotiana tabacum L. cv. Wisconsin 38. The experiment in a line: Cytokinin-dependent tobacco callus growth. In kind it is cell-based. The note with it: fresh callus weight at the concentration with highest activity. How it is done:
Cytokinin-dependent tobacco callus Nicotiana tabacum L. cv. Wisconsin 38 was maintained at 25° C. in darkness on modified Murashige-Skoog medium, containing per 1 liter: 4 μmol nicotinic acid, 2.4 μmol pyridoxine hydrochloride, 1.2 μmol thiamine, 26.6 μmol glycine, 1.37 μmol glutamine, 1.8 μmol myo-inositol, 30 g of sucrose, 8 g of agar, 5.37 μmol α-naphtylacetic acid (NAA) and 0.5 μmol benzylaminopurine (BAP). Subcultivation was carried out every three weeks. Fourteen days before the bioassay, the callus tissue was transferred to the media without 6-benzylaminopurine (BAP). Biological activity was determined from the increase in fresh callus weight after four weeks of cultivation. Five replicates were prepared for each cytokinin concentration and the entire test was repeated twice. From the obtained data, the concentration with highest activity was selected for each compound tested. Relative activity of the compound at this concentration was calculated (Tab. 6). The activity obtained for 10^−4 M 6-benzylaminopurine (BAP) was postulated as 100%. The cytokinins to be tested were dissolved in dimethylsulfoxide (DMSO) and the solution brought up to 10^−3M with distilled water. This stock was further diluted in the respective media used for the biotest to concentrations ranging from 10^−8M to 10^−4M.

Test [6] relates to T-lymphoblastic leukemia cell line CEM. The experiment in a line: Calcein AM cytotoxicity, CEM. It is filed as cell-based, human.
Text: as §1, §2, §3

Take `Fc1ccc(CNc2ncnc3nc[nH]c23)c(F)c1F` [6-(2,3,4-trifluorobenzylamino)purine]: the IC50 is over 167 µM in test [1] (MCF7, 72 h); over 167 µM in the test with K-562; over 167 µM in test [4] (HL-60, 72 h). Besides, the “activity (%) [10^−5 mol · l^−1 BAP = 100%]” value in test [2] is 94 (±3) %. Further, the figures for the “Activity (%) [10^−4 mol · l^−1 BAP = 100%]” value in test [3] and in test [5] were 131 (±22) % and 76 (±4) %, respectively.
On to `Fc1ccc(CNc2ncnc3nc[nH]c23)c(F)c1` [6-(2,4-difluorobenzylamino)purine], for which the IC50 is over 167 µM in test [1] (MCF7, 72 h); over 167 µM in the test on K-562; over 167 µM in test [4] (HL-60, 72 h); 146 µM in test [6] (72 hours, listed as 2,4diFBAP); 140 µM in test [6] (Homo sapiens, 72 h). Also, the “activity (%) [10^−5 mol · l^−1 BAP = 100%]” value in test [2] is reported as 88 (±7) %. Also, the “Activity (%) [10^−4 mol · l^−1 BAP = 100%]” value is listed as 139 (±2) % in test [3] and 95 (±1) % in test [5].
As to `COc1ccc(CNc2ncnc3nc[nH]c23)c(OC)c1` [6-(2,4-dimethoxybenzylamino)purine], the “activity (%) [10^−5 mol · l^−1 BAP = 100%]” value in test [2] is reported as 12 (±2) %. The “Activity (%) [10^−4 mol · l^−1 BAP = 100%]” value in test [3] is on record as 26 (±11) %; in test [5], 21 (±5) %.
With `Brc1ccccc1CNc1ncnc2nc[nH]c12` [6-(2-bromobenzylamino)purine], the “activity (%) [10^−5 mol · l^−1 BAP = 100%]” value in test [2] is 94 (±6) %. Besides, the “Activity (%) [10^−4 mol · l^−1 BAP = 100%]” value is listed as 52 (±14) % in test [3] and 102 (±5) % in test [5].
In the case of `COc1cc(CNc2ncnc3nc[nH]c23)cc(OC)c1OC` [6-(3,4,5-trimethoxybenzylamino)purine], the “activity (%) [10^−5 mol · l^−1 BAP = 100%]” value in test [2] is on record as 2 (±2) %. For the same molecule, the “Activity (%) [10^−4 mol · l^−1 BAP = 100%]” value was 25 (±2) % in test [3] and 19 (±3) % in test [5].
For `Clc1ccc(CNc2ncnc3nc[nH]c23)cc1Cl` [6-(3,4-dichlorobenzylamino)purine], the “activity (%) [10^−5 mol · l^−1 BAP = 100%]” value in test [2] is listed as 63 (±10) %. Also, the “Activity (%) [10^−4 mol · l^−1 BAP = 100%]” value is 117 (±22) % in test [3] and 45 (±7) % in test [5].
As to `Fc1cc(F)cc(CNc2ncnc3nc[nH]c23)c1` [6-(3,5-difluorobenzylamino)purine], in test [2], the “activity (%) [10^−5 mol · l^−1 BAP = 100%]” value is listed as 108 (±2) %. Also, the “Activity (%) [10^−4 mol · l^−1 BAP = 100%]” value in test [3] is listed as 156 (±4) %; in test [5], 97 (±3) %.
Consider `COc1cc(CNc2ncnc3nc[nH]c23)cc(OC)c1` [6-(3,5-dimethoxybenzylamino)purine], for which the IC50 in test [1] (MCF7, 72 h) is over 167 µM; with K-562, over 167 µM; in test [4] (HL-60, 72 h), over 167 µM; in test [6] (Homo sapiens, 72 h), over 167 µM. In test [2], the “activity (%) [10^−5 mol · l^−1 BAP = 100%]” value was 1.5 (±1) %. Besides, the “Activity (%) [10^−4 mol · l^−1 BAP = 100%]” value in test [3] is listed as 16 (±1) %.
Consider `Brc1cccc(CNc2ncnc3nc[nH]c23)c1` [6-(3-bromobenzylamino)purine], for which, in test [2], the “activity (%) [10^−5 mol · l^−1 BAP = 100%]” value is listed as 71 (±5) %. For the same molecule, the “Activity (%) [10^−4 mol · l^−1 BAP = 100%]” value is reported as 48 (±6) % in test [3] and 85 (±11) % in test [5].
With `O=[N+]([O-])c1cccc(CNc2ncnc3nc[nH]c23)c1` [6-(3-nitrobenzylamino)purine], the IC50 in test [1] (MCF7, 72 h) is over 167 µM; in the test on K-562, over 167 µM; in test [4] (HL-60, 72 h), over 167 µM; in test [6] (Homo sapiens, 72 h), over 167 µM. Also, the “activity (%) [10^−5 mol · l^−1 BAP = 100%]” value in test [2] was 66 (±7) %. In addition, the “Activity (%) [10^−4 mol · l^−1 BAP = 100%]” value in test [3] is reported as 60 (±15) %.
For `Brc1ccc(CNc2ncnc3nc[nH]c23)cc1` [6-(4-bromobenzylamino)purine], in test [2], the “activity (%) [10^−5 mol · l^−1 BAP = 100%]” value is given as 17 (±7) %. Besides, the figures for the “Activity (%) [10^−4 mol · l^−1 BAP = 100%]” value in test [3] and in test [5] were 30 (±15) % and 15 (±9) %, respectively.
Regarding `Nc1ncnc2nc[nH]c12` [Adenine], the IC50 was over 167 µM in test [1] (MCF7, 72 h); over 167 µM with K-562; over 167 µM in test [4] (HL-60, 72 h); over 167 µM in test [6] (Homo sapiens, 72 h).
On to `C/C(=C\CNc1ncnc2[nH]cnc12)CO` [Zeatin, reference compound], for which the IC50 is over 167 µM in test [1] (MCF7, 72 hours); over 167 µM in test [4] (HL-60, 72 hours); over 167 µM in test [6] (Homo sapiens, 72 hours).
